The nature of the data set: Henry solubility constant Hcp at 298.15 K (mol/(m3 Pa)). Particulars: reference: Leighton and Calo (1981).
With `Cc1ccccc1` [methylbenzene], the “Henry solubility constant Hcp” value came to 0.0015.
On to `ClC(Cl)=C(Cl)Cl` [tetrachloroethene], for which the “Henry solubility constant Hcp” value was 0.00061.
As for `ClC(Cl)C(Cl)Cl` [1,1,2,2-tetrachloroethane], the “Henry solubility constant Hcp” value amounted to 0.027.
In the case of `ClCCCCl` [1,3-dichloropropane], the “Henry solubility constant Hcp” value stood at 0.01.
As to `ClCC(Cl)CCl` [1,2,3-trichloropropane], the “Henry solubility constant Hcp” value was 0.029.
With `CCC(C)Cl` (stereo not given) [2-chlorobutane] the figure was 0.00041; with `C=C(Cl)Cl` [1,1-dichloroethene], 0.00026; with `CCCCCCl` [1-chloropentane], 0.00041.
For the molecule `CCCCCCCl` [1-chlorohexane], the “Henry solubility constant Hcp” value is 0.00041.
On to `ClC(Cl)(Cl)Cl` [tetrachloromethane], for which the “Henry solubility constant Hcp” value worked out at 0.00036.
For `CC(Cl)(Cl)Cl` [1,1,1-trichloroethane], the “Henry solubility constant Hcp” value turned out to be 0.00049.
The same measure for `Clc1ccccc1` [chlorobenzene]: 0.003; for `CCCCCl` [1-chlorobutane]: 0.00059.
Turning to `CC(Cl)CCl` (stereo not given) [1,2-dichloropropane], the “Henry solubility constant Hcp” value amounted to 0.0034.
With `ClCCCCCl` [1,4-dichlorobutane] the figure was 0.02; with `c1ccccc1` [benzene], 0.0018; with `ClC=C(Cl)Cl` [trichloroethene], 0.001.
The same measure for `ClCCCCCCl` [1,5-dichloropentane]: 0.018; for `ClCC(Cl)Cl` [1,1,2-trichloroethane]: 0.012.
Regarding `ClCCl` [dichloromethane], the “Henry solubility constant Hcp” value is 0.003.

The values above are taken from Sander's compilation of Henry's law constants (doi:10.1021/je00026a010).
